From ChEMBL document CHEMBL4680318, “(S)-Erypoegin K, an isoflavone isolated from Erythrina poeppigiana, is a novel inhibitor of topoisomerase IIα: Induction of G2 phase arrest in human gastric cancer cells” (Bioorg Med Chem, 2021)
Calls of active or inactive are those of the source. The calls are words filed in the database; no cut-off is given here.

Experiments:
[1] = system: MKN-1; assay: Cell cycle arrest in human MKN-1 cells assessed as accumulation at G0/G1 phase at 0.1 uM measured after 24 hrs by propidium iodide staining based Muse cell analyzer (reference value: 49.6 +/- 2.6 %); type: functional
[2] = system: SF-295; assay: Growth inhibition of human SF-295 cells measured after 48 hrs by sulforhodamine B assay; type: functional
[3] = system: MKN-74; assay: Growth inhibition of human MKN-74 cells measured after 48 hrs by sulforhodamine B assay; type: functional
[4] = system: MKN-45; assay: Growth inhibition of human MKN-45 cells measured after 48 hrs by sulforhodamine B assay; type: functional
[5] = Growth inhibition of human BSY1 cells measured after 48 hrs by sulforhodamine B assay; type: functional; conditions: BSY-1
[6] = system: GCIY; assay: Cell cycle arrest in human GCIY cells assessed as accumulation at S phase at 0.3 uM measured after 24 hrs by propidium iodide staining based Muse cell analyzer (reference value: 25.7 +/- 0.7 %); type: functional
[7] = system: NCI-H23; assay: Growth inhibition of human NCI-H23 cells measured after 48 hrs by sulforhodamine B assay; type: functional
[8] = Toxicity in KSN/Slc nude mouse xenografted with human GCIY cells assessed as effect on body weight at 40 mg/kg, ip administered twice a week for 4 weeks starting from day 4 post inoculation; type: organism-based; conditions: in vivo, 672 h
[9] = system: SF-539; assay: Growth inhibition of human SF-539 cells measured after 48 hrs by sulforhodamine B assay; type: functional
[10] = system: SF-268; assay: Growth inhibition of human SF-268 cells measured after 48 hrs by sulforhodamine B assay; type: functional
[11] = system: MDA-MB-231; assay: Growth inhibition of human MDA-MB-231 cells measured after 48 hrs by sulforhodamine B assay; type: functional
[12] = system: GCIY; assay: Cytotoxicity against human GCIY cells assessed as reduction in cell viability measured after 48 hrs by MTS/CellTiter96 aqueous one solution cell proliferation assay; type: functional, cell-based
[13] = system: DMS-114; assay: Growth inhibition of human DMS-114 cells measured after 48 hrs by sulforhodamine B assay; type: functional
[14] = system: OVCAR-4; assay: Growth inhibition of human OVCAR-4 cells measured after 48 hrs by sulforhodamine B assay; type: functional
[15] = system: SK-OV-3; assay: Growth inhibition of human SK-OV-3 cells measured after 48 hrs by sulforhodamine B assay; type: functional
[16] = system: PC-3; assay: Growth inhibition of human PC-3 cells measured after 48 hrs by sulforhodamine B assay; type: functional
[17] = system: OVCAR-5; assay: Growth inhibition of human OVCAR-5 cells measured after 48 hrs by sulforhodamine B assay; type: functional
[18] = system: MKN-1; assay: Induction of apoptosis in human MKN-1 cells assessed as activation of caspase 3 measured after 5 to 35 hrs by fluorescence assay; type: functional, cell-based; conditions: dose 1-10 µM, time 5-35 hrs
[19] = system: HCT-15; assay: Growth inhibition of human HCT-15 cells measured after 48 hrs by sulforhodamine B assay; type: functional
[20] = system: NCI-H522; assay: Growth inhibition of human NCI-H522 cells measured after 48 hrs by sulforhodamine B assay; type: functional
[21] = system: St-4; assay: Growth inhibition of human St-4 cells measured after 48 hrs by sulforhodamine B assay; type: functional
[22] = system: MKN-1; assay: Induction of apoptosis in human MKN-1 cells assessed as activation of caspase 9 at 1 to 10 uM by fluorescence assay; type: functional, cell-based; conditions: dose 1-10 µM, time 5-35 hrs, TDE = time-dependent effect
[23] = system: MKN-1; assay: Induction of apoptosis in human MKN-1 cells assessed as activation of caspase 3 at 1 to 10 uM by fluorescence assay; type: functional, cell-based; conditions: dose 1-10 µM, time 5-35 hrs, TDE = time-dependent effect
[24] = system: NCI-H460; assay: Growth inhibition of human NCI-H460 cells measured after 48 hrs by sulforhodamine B assay; type: functional
[25] = system: GCIY; assay: Cell cycle arrest in human GCIY cells assessed as accumulation at G2/M phase at 0.3 uM measured after 24 hrs by propidium iodide staining based Muse cell analyzer (reference value: 28.9 +/- 1.3 %); type: functional
[26] = system: MKN-1; assay: Growth inhibition of human MKN-1 cells measured after 48 hrs by sulforhodamine B assay; type: functional
[27] = system: GCIY; assay: Cell cycle arrest in human GCIY cells assessed as accumulation at G0/G1 phase at 0.1 uM measured after 24 hrs by propidium iodide staining based Muse cell analyzer (reference value: 43 +/- 2.2 %); type: functional
[28] = system: MKN-7; assay: Growth inhibition of human MKN-7 cells measured after 48 hrs by sulforhodamine B assay; type: functional
[29] = system: U-251; assay: Growth inhibition of human U-251 cells measured after 48 hrs by sulforhodamine B assay; type: functional
[30] = system: MKN-1; assay: Cell cycle arrest in human MKN-1 cells assessed as accumulation at S phase at 0.1 uM measured after 24 hrs by propidium iodide staining based Muse cell analyzer (reference value: 15.5 +/- 0.2 %); type: functional
[31] = system: GCIY; assay: Antitumor activity against human GCIY cells xenografted in KSN/Slc nude mouse assessed as reduction in tumor size at 40 mg/kg, ip administered twice a week for 4 weeks starting from day 4 post inoculation by vernier caliper method; type: functional, organism-based
[32] = system: GCIY; assay: Cell cycle arrest in human GCIY cells assessed as accumulation at G0/G1 phase at 0.3 uM measured after 24 hrs by propidium iodide staining based Muse cell analyzer (reference value: 43 +/- 2.2 %); type: functional
[33] = system: OVCAR-8; assay: Growth inhibition of human OVCAR-8 cells measured after 48 hrs by sulforhodamine B assay; type: functional
[34] = system: DU-145; assay: Growth inhibition of human DU-145 cells measured after 48 hrs by sulforhodamine B assay; type: functional
[35] = system: LOX IMVI; assay: Growth inhibition of human LOX IMVI cells measured after 48 hrs by sulforhodamine B assay; type: functional
[36] = system: MKN-1; assay: Induction of apoptosis in human MKN-1 cells assessed as activation of caspase 9 measured after 5 to 35 hrs by fluorescence assay; type: functional, cell-based; conditions: dose 1-10 µM, time 5-35 hrs
[37] = system: HCC 2998; assay: Growth inhibition of human HCC 2998 cells measured after 48 hrs by sulforhodamine B assay; type: functional
[38] = system: RXF 631; assay: Growth inhibition of human RXF 631 cells measured after 48 hrs by sulforhodamine B assay; type: functional
[39] = system: SNB-78; assay: Growth inhibition of human SNB-78 cells measured after 48 hrs by sulforhodamine B assay; type: functional
[40] = system: NCI-H226; assay: Growth inhibition of human NCI-H226 cells measured after 48 hrs by sulforhodamine B assay; type: functional
[41] = system: MCF7; assay: Growth inhibition of human MCF7 cells measured after 48 hrs by sulforhodamine B assay; type: functional
[42] = system: GCIY; assay: Cell cycle arrest in human GCIY cells assessed as accumulation at G2/M phase at 0.1 uM measured after 24 hrs by propidium iodide staining based Muse cell analyzer (reference value: 28.9 +/- 1.3 %); type: functional
[43] = system: GCIY; assay: Induction of apoptosis in human GCIY cells assessed as activation of caspase 3 at 1 to 10 uM by fluorescence assay; type: functional, cell-based; conditions: dose 1-10 µM, time 5-35 hrs, TDE = time-dependent effect
[44] = system: HT-29; assay: Growth inhibition of human HT-29 cells measured after 48 hrs by sulforhodamine B assay; type: functional
[45] = system: SNB-75; assay: Growth inhibition of human SNB-75 cells measured after 48 hrs by sulforhodamine B assay; type: functional
[46] = system: OVCAR-3; assay: Growth inhibition of human OVCAR-3 cells measured after 48 hrs by sulforhodamine B assay; type: functional
[47] = Growth inhibition of human HBC4 cells measured after 48 hrs by sulforhodamine B assay; type: functional

GI50 [3]: 6920 nM
GI50 [4]: 347 nM
GI50 [7]: 380 nM
GI50 [11]: 1740 nM
GI50 [14]: > 100000 nM
GI50 [15]: 427 nM
GI50 [16]: > 100000 nM
GI50 [17]: 1350 nM
GI50 [19]: 676 nM
GI50 [20]: 1580 nM
GI50 [24]: 70.8 nM
GI50 [26]: 295 nM
GI50 [28]: 4370 nM
GI50 [29]: 331 nM
GI50 [33]: 417 nM
GI50 [34]: 316 nM
GI50 [37]: 2040 nM
GI50 [40]: 295 nM
GI50 [41]: 138 nM
GI50 [44]: 10500 nM
GI50 [46]: 2880 nM
SMILES: CC(C)(O)[C@@H]1Cc2c(cc(O)c3c(=O)c(-c4ccc(O)cc4)coc23)O1
Activity [1]: 24.9%
GI50 [2]: 275 nM
GI50 [5]: 631 nM
Activity [6]: 7%
Activity [8]: Non-Toxic
GI50 [9]: 347 nM
GI50 [10]: 457 nM
IC50 [12]: 270 nM
GI50 [13]: 380 nM
Activity [18]: Dose-dependent effect
GI50 [21]: 6030 nM
Activity [22]: Tde
Activity [23]: Tde
Activity [25]: 87.3%
Activity [27]: 34.6%
Activity [30]: 12.3%
Activity [31]: Active
Activity [32]: 2.8%
GI50 [35]: 257 nM
Activity [36]: Dose-dependent effect
GI50 [38]: 5010 nM
GI50 [39]: 5890 nM
Activity [42]: 40.4%
Activity [43]: Tde
GI50 [45]: 537 nM
GI50 [47]: 1740 nM
